The results in this text go back to patent US12350290B2, “Compositions and methods that promote hypoxia or the hypoxia response for treatment and prevention of mitochondrial dysfunction and oxidative stress disorders” (The General Hospital Corporation, priority 2015, dated 2025).

Data set [1] has as its system HT-29s, HEK 293s and K562s. The data set is described as follows: Rescue of growth defect caused by respiratory chain inhibition. Format: cell-based. An excerpt:
After VHL was confirmed as an effective therapeutic target for mitochondrial disease, clinically-relevant options for triggering the hypoxia response were studied. While a VHL-inhibitor has been reported (Buckley et al., J. Am. Chem. Soc. 134:4465-68 (2012)), it is not cell permeable. However, PHD inhibitors have been extensively developed for the treatment of anemia of chronic kidney disease and ischemic injury (Rabinowitz, J. Med. Chem. 56:9369-9402 (2013)). The small molecule PHD inhibitor, FG-4592, also known as roxadustat, is currently in Phase III clinical trials for chronic kidney disease. […] FG-4592 treatment may mimic VHL-knockout, thus triggering a broader hypoxia transcriptional program. Compounds that trigger the hypoxia response including VHL-inhibitors and PHD inhibitors are therapeutics for mitochondrial dysfunction. Pre-treatment and incubation with FG-4592 almost completely rescued the growth defects caused by deficiency of multiple respiratory complexes, in multiple cell lines (FIGS. 12-13). […] Complex I, III or V inhibition stunts cell growth in most cell lines, including HT-29s, HEK 293s and […]. […] The nearly full rescue of the disease state across different cell lines and across chemical lesions highlights the general utility of this approach.

The next data set concerns HIF1α. The experiment in a line: HIF1α stabilization in cell culture. Type of data set: cell-based. Conditions: for effect of respiratory chain inhibition on HIF1α stabilization: hypoxia, respiratory chain inhibitor alone. An excerpt:
It has previously been noted that a paradox exists between mitochondrial dysfunction and cellular sensing of hypoxia (Chandel et al., Proc. Natl. Acad. Sci. U.S.A. 95:11715-20 (1998)). In cell culture, inhibition of the respiratory chain prevents HIF stabilization, even under low oxygen conditions that would otherwise trigger the hypoxia response. Proposed explanations include higher cellular oxygen tensions and […] ROS production during states of mitochondrial dysfunction. While this phenomenon has been noted in the hypoxia field, it has received less attention in the context of mitochondrial disease pathogenesis. If such a paradox extends to mitochondrial disease patients, such individuals may be unable to stabilize HIF in physiological conditions of hypoxia.

The subject of data set [2] is HIF-responsive genes (HK2, GLUT1, LDHA, PDK1). The experiment in a line: Transcription of energy metabolism genes (hypoxia transcriptional program). Format: cell-based. An excerpt: The HIF transcriptional response is believed to be protective during states of hypoxia, at least in part by causing a rewiring of energy metabolism. By shifting from aerobic respiration to anaerobic glycolysis, the HIF1α response can maintain the energy supply at low oxygen tensions. FG-4592 caused normoxic stabilization of HIF proteins. […] Glucose import and phosphorylation are rate-limiting steps in the glycolytic flux of many tissues. […] HIF1α activation is also known to shunt the carbon supply away from the TCA cycle and towards the LDH reaction. Several mechanisms have been proposed for this shift away from aerobic respiration, including pyruvate dehydrogenase phosphorylation. […] Thus, cells were unable to mount the appropriate transcriptional response by endogenous mechanisms.

A further data set deals with HT-29 cells. The data set is described as follows: Anaerobic glycolysis measured as lactic acid. Type of data set: cell-based. The settings on record: basal conditions and with respiratory chain inhibition. An excerpt: (§1) The shift in energy metabolism was confirmed by measuring lactic acid as the end-product of anaerobic glycolysis and oxygen consumption as a proxy for aerobic respiration. […] Thus cells are able to shift towards glycolysis using endogenous defense mechanisms; however, a transcriptional response is needed to increase the glycolytic flux enough to maintain cellular growth rates. Furthermore, basal oxygen consumption was decreased with FG-4592 treatment. This may be protective in the setting of mitochondrial dysfunction, as it may limit the amount of ROS produced by impaired electron transport. Genetic and small molecule activation of the HIF pathway enabled cells to cope with mitochondrial dysfunction at multiple steps of the electron transport chain and in multiple cell types. The small molecule, FG-4592, normoxically stabilized HIF and thereby increased glycolysis beyond allosteric mechanisms. Furthermore, it bypassed the paradox between mitochondrial dysfunction and HIF stabilization during hypoxia.

The next data set relates to multiple cell types. The experiment in a line: Oxygen consumption as proxy for aerobic respiration. Conditions: FG-4592 treatment. Format: cell-based.
Text: as §1

In data set [3] the test system is hypoxia response elements (HREs) fused to GFP. The experiment in a line: Zebrafish hypoxia reporter strain (HRE-GFP) fluorescence. The settings on record: 6 hours of exposure to 2.5 μM FG-4592. Type of data set: in vivo. An excerpt: A zebrafish reporter strain was used to monitor activation of the hypoxia transcriptional response (Santhakumar et al., Cancer Res. 72, 4017-27 (2012)). The reporter fish has a promoter containing hypoxia response elements (HREs) fused to GFP. Hypoxia exposure or VHL knockdown causes an increase in GFP expression, allowing for in vivo monitoring of the hypoxia response. This model system could be used to monitor drug-target engagement and pharmacodynamics of a HIF activator (Chowdhury et al., ACS Chem Biol. 8:1488-96 (2013)).
Antimycin inhibits oxygen consumption of zebrafish embryos (Stackley, et al., PLOS One. 6, e25652 (2011)).

Another data set relates to zebrafish embryos. The data set is described as follows: Zebrafish embryo survival with Antimycin.
The test system of another data set is K562 cells. The experiment in a line: Mitochondrial disease model: K562 cell growth with Antimycin. Type of data set: cell-based. The settings on record: three weeks. The procedure:
Mitochondrial disease was modeled in the suspension cell line, K562, and a CRISPR screen was performed to identify potential drug targets. The natural product, Antimycin, was used as a complex III inhibitor of the respiratory chain. In the presence of Antimycin, the respiratory chain is unable to oxidize high energy reducing equivalents to power ATP production. However, redox recycling by the cytoplasmic lactate dehydrogenase reaction, allows other NAD+ dependent reactions to proceed. […] Mitochondrial disease was modeled with the addition of Antimycin alone (moderate disease) or Antimycin in combination with removal of pyruvate (severe disease), using cell growth as a proxy for disease magnitude (FIG. 3). K562 cells were infected with a ˜65,000 sgRNA library, targeting ˜18,000 genes (Shalem et al., Science, 343:84-88 (2014)). After one week of genome editing, the pool of knockout cells were divided into experimental conditions of untreated, moderate disease and severe disease states (FIG. 4). Samples for an enrichment screen were collected by allowing the knockout pool to grow in selection conditions for three weeks. The relative growth between untreated and moderate disease conditions was 100-fold and between untreated and severe disease conditions was 10,000-fold (FIG. 5). […]

On to `Cc1nc(C(=O)NCC(=O)O)c(O)c2ccc(Oc3ccccc3)cc12` [FG-4592, N-[(4-hydroxy-1-methyl-7-phenoxy-3-isoquinolinyl)carbonyl]glycine], for which, in data set [1] (ATP synthase inhibition), the “rescue of growth under ATP synthase inhibition” value was “significantly rescued”. Besides, the normal growth rates entry in data set [1] (no respiratory chain inhibition) is listed as “minimally increased”. Also, in data set [1] (~50 uM FG-4592 in advance and during respiratory chain dysfunction, dose-dependent), the “rescue of growth defect from Complex I, III or V inhibition” value is reported as “nearly or completely rescued this growth defect”. In addition, the HIF1α stabilization entry in the data set with HIF1α (hypoxic conditions) is listed as “stabilized HIF1α beyond the endogenous hypoxia response of untreated cells”. Besides, in the data set with HIF1α (mitochondrial dysfunction, normoxia or hypoxia), the “HIF1α stabilization during respiratory chain inhibition” value is given as “enabled HIF1α stabilization in the face of mitochondrial dysfunction”. For the same molecule, the HIF1α stabilization entry in the data set with HIF1α (normoxic conditions) was “stabilized the transcription factor even during normoxia”. Also, in data set [2] (FG-4592 for 24 h), the “transcription of glucose transporter 1 (GLUT1)” value is listed as “upregulated in multiple cell types” and the “transcription of hexokinase 2 (HK2)” value is “upregulated in multiple cell types”. Besides, the “transcription of lactate dehydrogenase (LDHA)” value in data set [2] (FG-4592 treatment) is “similarly upregulated”. In addition, the “transcription of pyruvate dehydrogenase kinase (PDK1)” value in data set [2] (after FG-4592 treatment) is on record as “significant upregulation”. The hypoxia transcriptional program entry in data set [2] (during respiratory chain inhibition) is “triggered the hypoxia transcriptional program, even during respiratory chain inhibition”. Further, the increase of glycolysis in the data set on HT-29 cells was around 60%. Moreover, the basal oxygen consumption entry with multiple cell types is “decreased”. The “fluorescence of reporter fish” value in data set [3] was “robust increase in fluorescence”. Besides, the “survival of zebrafish embryos” value with zebrafish embryos (intermediate concentrations of Antimycin) is listed as “nearly doubled survival”.

Regarding `CC[C@H]1/C=C/C=C/C[C@@H](C)[C@H](O)[C@@](C)(O)C(=O)[C@@H](C)[C@H](O)[C@@H](C)C(=O)[C@@H](C)[C@H](O)[C@@H](C)/C=C/C(=O)O[C@@H]2[C@H](C)[C@H](CC1)O[C@]1(CC[C@H](C)[C@H](C[C@@H](C)O)O1)[C@H]2C` [Oligomycin], the “effect of respiratory chain inhibition on HIF1α stabilization” value with HIF1α is given as “prevented HIF1α stabilization during hypoxia”.

In the case of Antimycin, in the data set with K562 cells (moderate disease: 100 nM Antimycin with 1 mM pyruvate), the “relative growth between untreated and moderate disease conditions” value was determined as 100 fold. Also, in the data set with K562 cells (severe disease: 100 nM Antimycin without pyruvate), the “relative growth between untreated and severe disease conditions” value was 10,000 fold. Further, in the data set with HIF1α, the “effect of respiratory chain inhibition on HIF1α stabilization” value is on record as “prevented HIF1α stabilization during hypoxia”. The “toxicity to zebrafish embryos” value with zebrafish embryos (prolonged treatment at low nanomolar concentrations) is “resulted in death of embryos”.
